From patent US8952024B2, “Herbicidal pyrimidone derivatives” (E I du Pont de Nemours and Company, priority 2009, dated 2015)

Columns and labels:
Assay in all cases: Test B pre-/postemergence plant response
Assay type in all cases: in vivo
[1] = tested on: blackgrass (Alopecurus myosuroides)
Outline: (§1)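 Seeds were sown in loam soil/sand blend and treated preemergence with compound in non-phytotoxic solvent mixture containing surfactant; postemergence sprays, same formulation, went onto plants 2 to 18 cm (1- to 4-leaf stage) in peat-based planting medium. Greenhouse 13 to 15 days, then visual rating versus untreated controls, 0 (no effect) to 100 (complete control).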

[2] = tested on: cocklebur (Xanthium strumarium)
Outline: as §1

kochia (Kochia scoparia) = conditions: Postemergence; for Plant response rating, Kochia: scale 0 (no effect) to 100 (complete control)
Outline: as §1

[3] = tested on: morningglory (Ipomoea coccinea)
Outline: as §1

[4] = tested on: bermudagrass (Cynodon dactylon)
Outline: as §1

[5] = tested on: wheat (Triticum aestivum)
Outline: as §1

[6] = tested on: downy bromegrass (Bromus tectorum)
Outline: as §1

[7] = tested on: Surinam grass (Brachiaria decumbens)
Outline: as §1

[8] = tested on: woolly cupgrass (Eriochloa villosa)
Outline: as §1

wild oat (Avena fatua) = tested on: wild oat (Avena fatua)
Outline: as §1

[9] = tested on: ragweed (common ragweed, Ambrosia elatior)
Outline: as §1

[10] = tested on: large crabgrass (Digitaria sanguinalis)
Outline: as §1

[11] = tested on: Italian ryegrass (Lolium multiflorum)
Outline: as §1

[12] = 250 g ai/ha, Preemergence, 0 to 100 scale
[13] = Postemergence, 31 g ai/ha, scale 0 to 100 (0 no effect, 100 complete control)
[14] = Postemergence, 62 g ai/ha, scale 0 (no effect) to 100 (complete control), 13 to 15 days
[15] = Postemergence, 125 g ai/ha, visual rating after 13 to 15 days, scale 0 (no effect) to 100 (complete control)
[16] = Postemergence, 250 g ai/ha, scale 0 to 100
[17] = Preemergence, 31 g ai/ha, scale 0 to 100 (0 no effect, 100 complete control)
[18] = Preemergence, 62 g ai/ha, scale 0 to 100 (0 no effect, 100 complete control)
[19] = Preemergence, 125 g ai/ha, 0 to 100 scale

SMILES: Cc1ccc(F)cc1-n1c(-c2ccccc2)ncc(C(=O)C2=C(O)CCCC2=O)c1=O [Compound 44]
- Plant response rating, Blackgrass [1, 12]: 60
- Plant response rating, Blackgrass [1, 13]: 0
- Plant response rating, Blackgrass [1, 14]: 10
- Plant response rating, Blackgrass [1, 15]: 30
- Blackgrass plant response rating [1, 16]: 30
- Plant response rating, Blackgrass [1, 17]: 5
- Plant response rating, Blackgrass [1, 18]: 30
- Blackgrass plant response rating [1, 19]: 40
- Plant response rating, Cocklebur [2, 12]: 45
- Plant response rating, Cocklebur [2, 13]: 80
- Plant response rating, Cocklebur [2, 14]: 80
- Plant response rating, Cocklebur [2, 15]: 90
- Cocklebur plant response rating [2, 16]: 98
- Plant response rating, Kochia (kochia (Kochia scoparia); 62 g ai/ha, 13 to 15 days): 75
- Plant response rating, Kochia (kochia (Kochia scoparia); 125 g ai/ha, visual rating after 13 to 15 days): 75
- Kochia plant response rating (kochia (Kochia scoparia); 250 g ai/ha, scale 0 to 100): 95
- Plant response rating, Morningglory [3, 12]: 95
- Plant response rating, Morningglory [3, 14]: 70
- Plant response rating, Morningglory [3, 15]: 75
- Plant response rating, Morningglory [3, 17]: 0
- Plant response rating, Morningglory [3, 18]: 0
- Morningglory plant response rating [3, 19]: 50
- Plant response rating, Bermudagrass [4, 12]: 100
- Plant response rating, Bermudagrass [4, 13]: 80
- Plant response rating, Bermudagrass [4, 14]: 95
- Plant response rating, Bermudagrass [4, 15]: 95
- Bermudagrass plant response rating [4, 16]: 98
- Plant response rating, Bermudagrass [4, 17]: 100
- Plant response rating, Bermudagrass [4, 18]: 100
- Bermudagrass plant response rating [4, 19]: 100
- Plant response rating, Wheat [5, 12]: 0
- Plant response rating, Wheat [5, 14]: 10
- Plant response rating, Wheat [5, 15]: 30
- Plant response rating, Wheat [5, 17]: 0
- Wheat plant response rating [5, 19]: 0
- Plant response rating, Bromegrass, Downy [6, 12]: 5
- Plant response rating, Bromegrass, Downy [6, 13]: 40
- Plant response rating, Bromegrass, Downy [6, 14]: 70
- Plant response rating, Bromegrass, Downy [6, 15]: 80
- Bromegrass, Downy plant response rating [6, 16]: 85
- Plant response rating, Bromegrass, Downy [6, 17]: 0
- Plant response rating, Bromegrass, Downy [6, 18]: 0
- Bromegrass, Downy plant response rating [6, 19]: 0
- Plant response rating, Surinam Grass [7, 12]: 100
- Plant response rating, Surinam Grass [7, 14]: 95
- Plant response rating, Surinam Grass [7, 15]: 95
- Plant response rating, Surinam Grass [7, 17]: 65
- Surinam Grass plant response rating [7, 19]: 90
- Plant response rating, Cupgrass, Woolly [8, 12]: 85
- Plant response rating, Cupgrass, Woolly [8, 13]: 80
- Plant response rating, Cupgrass, Woolly [8, 14]: 80
- Plant response rating, Cupgrass, Woolly [8, 15]: 85
- Cupgrass, Woolly plant response rating [8, 16]: 95
- Plant response rating, Cupgrass, Woolly [8, 17]: 0
- Plant response rating, Cupgrass, Woolly [8, 18]: 45
- Cupgrass, Woolly plant response rating [8, 19]: 80
- Plant response rating, Oat, Wild (wild oat (Avena fatua); [12]): 30
- Plant response rating, Oat, Wild (wild oat (Avena fatua); [14]): 80
- Plant response rating, Oat, Wild (wild oat (Avena fatua); [15]): 80
- Plant response rating, Oat, Wild (wild oat (Avena fatua); [17]): 0
- Oat, Wild plant response rating (wild oat (Avena fatua); [19]): 5
- Plant response rating, Ragweed [9, 12]: 95
- Plant response rating, Ragweed [9, 14]: 95
- Plant response rating, Ragweed [9, 15]: 95
- Plant response rating, Ragweed [9, 17]: 20
- Ragweed plant response rating [9, 19]: 95
- Plant response rating, Crabgrass, Large [10, 12]: 100
- Plant response rating, Crabgrass, Large [10, 13]: 85
- Plant response rating, Crabgrass, Large [10, 14]: 90
- Plant response rating, Crabgrass, Large [10, 15]: 95
- Crabgrass, Large plant response rating [10, 16]: 98
- Plant response rating, Crabgrass, Large [10, 17]: 65
- Plant response rating, Crabgrass, Large [10, 18]: 75
- Crabgrass, Large plant response rating [10, 19]: 100
- Plant response rating, Ryegrass, Italian [11, 12]: 0
- Plant response rating, Ryegrass, Italian [11, 14]: 5
- Plant response rating, Ryegrass, Italian [11, 15]: 10
- Plant response rating, Ryegrass, Italian [11, 17]: 0
- Ryegrass, Italian plant response rating [11, 19]: 0
